Each structure is given as a SMILES string. Entries after “also recorded” stand apart in the source; their conditions may differ. Structures can show the parent of a compound that is named as a salt.

The conditions of series [1]: parenteral administration in humans; Printen et al., 1979; cited from earlier work.
Series [2] concerns Walker 256 carcinosarcoma. The following applies: rat, in vivo; cited from earlier work.
For series [3], the system named is patients. Particulars: human, in vivo; cited from earlier work.
Series [4] deals with male Wistar rats. Description: Scanning electron microscopy, outer hair cell count per cochlear turn. Format: in vivo, rat. The following applies: for outer hair cell findings, middle and basal turns: versus untreated control, 75, 150, 300 mg/kg D-Met prior to 16 mg/kg CDDP. On the procedure:
(§1) Complete data sets were obtained for five groups of five male Wistar rats (280-421 g). All animals were anesthetized with […] IM of Rompun cocktail (a solution containing 86.21 mg/ml ketamine and 2.76 mg/ml xylazine) prior to all injections and testing. Anesthesia was supplemented as needed with half doses throughout testing.
(§2) ABR data were analyzed using a three factor analysis of variance (ANOVA) with one between subject factor (groups) and two within subject factors (frequency and pre- vs. post-test). Each dependent variable was analyzed independently. Tests subsequent to the ANOVA were carried out in accordance with the Tukey HSD procedure. Weight loss and/or gastrointestinal protection was measured using the same type of statistical analysis as the ABR measures. SEM data were analyzed for each turn using a one way analysis of variance with Post-Hoc Tukey HSD analysis. The criterion for statistical significance for all measures was p≦0.01.

For series [5], the system named is male Wistar rats. The method, then:
as §1

The subject of series [6] is male Wistar rats. The method, then: as §1
Each animal's weight was measured in an Ohaus triple beam balance scale before administration of the anesthetic for the pretest and again before the post-test 3 days later.
as §2
This is another data set of the same source.

Series [7] deals with male Wistar rats. Description: Auditory Brainstem Testing (ABR) of auditory threshold, D-Met before CDDP. It is filed as in vivo, rat.
The test system of another series is rats. Particulars: cited from earlier work; for CDDP nephroprotection: literature (Jones et al.; others).
For series [8], the system named is NHIK 3025 in vitro human uterine cervix carcinoma in situ cancer cells. The following applies: methionine, presumably a racemic mixture; Melvik and Petterson, 1987; cited from earlier work.
For series [9] the following is noted: literature; cited from earlier work.
For series [10] the following is noted: literature; cited from earlier work. This is another data set of the same source.
For series [11], the system named is patients. Particulars: cited from earlier work.
For a further series, the system named is hamsters. The following applies: Church et al. (1995); cited from earlier work.
Another series relates to animals. Particulars: literature, cited from earlier work.
Setting [12] is: 16 mg/kg CDDP alone (treated control).

Turning to `CSCCC(N)C(=O)O` (racemic) [DL-methionine], the “plasma levels of isomers” value in [1] is recorded as “higher plasma levels of the D- isomer”.

In the case of `N.N.[Cl][Pt][Cl]` [CDDP, cis-diamminedichloroplatinum(II)], the “time to complete redistribution after tumor uptake” value in [2] is not above 15 min. Also, the “patients with hearing loss having complete recovery” value with patients [3] is on record as “one of 121”. Further, in the series with male Wistar rats [4], the “outer hair cell findings, middle and basal turns” value was “significantly different findings from the untreated control group”. Moreover, in the series with male Wistar rats [5] (setting [12]), the “animals surviving to the end of the study period” value is 5/10 and the “animals that did not survive to the end of the study period” value is listed as 50%.

Turning to `CSCC[C@@H](N)C(=O)O` [D-Met, D-methionine], in the series with male Wistar rats [6] (300 mg/kg D-Met prior to 16 mg/kg CDDP, 3 days), the “weight loss compared with treated control group” value is recorded as “significantly less than that in the treated control group”. For the same compound, in the series with male Wistar rats [6] (75, 150, 300 mg/kg D-Met prior to 16 mg/kg CDDP), the “CDDP-induced weight loss versus D-Met dose” value is “diminished as D-Met dosing increased”. The “animals with complete otoprotection as defined by no significant ABR threshold shift for any stimulus” value is recorded as 2/5 in the series with male Wistar rats [7] (75 mg/kg D-Met i.p. 30 minutes prior to 16 mg/kg CDDP, ABR 3 days later) and 3/5 in the series with male Wistar rats [7] (150 mg/kg D-Met i.p. 30 minutes prior to 16 mg/kg CDDP, ABR 3 days later). Also, the “animals with complete otoprotection for all stimulus conditions” value in the series with male Wistar rats [7] (300 mg/kg D-Met i.p. 30 minutes prior to 16 mg/kg CDDP, ABR 3 days later) is recorded as 5 animals. Besides, the “ABR thresholds compared with treated control group, all stimuli” value in the series on male Wistar rats [7] (any level of D-Met (75, 150, 300 mg/kg) prior to 16 mg/kg CDDP, p≦0.01) is “significantly lower ABR thresholds than the treated control group”. Moreover, the “hair cell counts, apical turn” value in the series with male Wistar rats [4] (all groups, apical turn) is on record as “essentially normal hair cell counts”. For the same compound, in the series on male Wistar rats [4], the “outer hair cell findings, middle and basal turns” value is recorded as “only the treated control group showed significantly different findings”. Moreover, in the series with rats, the CDDP nephroprotection entry is “highly effective CDDP nephroprotection”. Besides, in the series on male Wistar rats [5] (D-Met prior to 16 mg/kg CDDP), the “alopecia: coat and hair loss versus control group animals” value is “significantly less hair loss”. Besides, in the series on male Wistar rats [5] (morning of the third day, D-Met prior to 16 mg/kg CDDP), the “neuroprotection: activity and coordination versus surviving treated controls” value was “noticeably more lively, active, and coordinated”.

With `CSCC[C@H](N)C(=O)O` (racemic) [methionine], the “effect of preadministration on CDDP cytotoxicity” value in [8] was “sensitized NHIK 3025 in vitro human uterine cervix carcinoma in situ cancer cells to CDDP cytotoxicity”.

`CCOC(=O)[C@@H](N)CS` [Ethyl-L-cysteinate]: the CDDP nephroprotection result with rats is reported as “exacerbate CDDP nephrotoxicity”.

Consider `O=C(O)CCCC[C@@H]1SC[C@@H]2NC(=O)N[C@@H]21` [Biotin], for which the “effect on CDDP anti-tumor action” value in series [9] is recorded as “inhibits anti-tumor activity”. In addition, the CDDP nephroprotection result with rats is listed as “good CDDP nephroprotection”.

For `CO[C@@]1(NC(=O)Cc2cccs2)C(=O)N2C(C(=O)O)=C(COC(N)=O)CS[C@@H]21` [cefoxitin], the “protection against CDDP-induced weight loss” value in series [10] is listed as “some protection against CDDP-induced weight loss”. In addition, the CDDP nephroprotection entry with rats was “does not provide nephroprotection”.

In the case of `Cc1ncc(C[n+]2csc(CCO)c2C)c(N)n1` [thiamine-HCl], the “protection against CDDP-induced weight loss” value in series [10] is given as “does not protect against cisplatin nephrotoxicity or weight loss”. In addition, the CDDP nephroprotection entry with rats is reported as “does not protect against cisplatin nephrotoxicity or weight loss”.

As to `NCCCNCCSP(=O)(O)O` [WR2721], in the series with patients [11] (Glover et al., 1987), the “effect on nausea and vomiting” value was “does not ameliorate nausea and vomiting”. For the same compound, the CDDP nephroprotection result in the series with patients [11] (Mollman et al., 1988) was “excellent CDDP nephroprotection”. Besides, in the series on patients [11] (WR2721 prior to CDDP, Glover et al. (1987)), the “patients with mild to severe hearing loss” value is 20 of 36. For the same compound, the “incidence of significant hearing threshold shift” value in the series with patients [11] (patients pretreated with WR2721 prior to CDDP, Rubin et al. (1995)) is on record as 45%. For the same compound, the “protection from CDDP ototoxicity or mortality” value in the series on hamsters is reported as “no WR2721 protection from ototoxicity or mortality”.

For `CC1=C(C(=O)O)N2C(=O)[C@@H](NC(=O)[C@H](N)c3ccccc3)[C@H]2SC1` [Cephalexin], the “protection against CDDP-induced weight loss” value in series [10] was “protects against CDDP-induced kidney dysfunction and weight loss”. Also, the “prevention of CDDP kidney pathology” value with rats (Jones et al., 1992) was “does not prevent kidney pathology”. Moreover, in the series on rats, the CDDP nephroprotection result was “protects against CDDP-induced kidney dysfunction and weight loss”.

On to `CCN(CC)C(=S)S` [DDTC, diethyldithiocarbamate], for which the “side effects of the protective agent” value in the series on animals is “can produce severe side effects”.

As for `CC(S)C(=O)NCC(=O)O` (stereo not shown) [N-(2-mercapto-propionyl)glycine], the CDDP nephroprotection entry with rats is reported as “exacerbate CDDP nephrotoxicity”.

Consider `Nc1ccc(S(=O)(=O)Nc2nccs2)cc1` [Sulfathiazole], for which, in the series with rats, the CDDP nephroprotection result is “provides protection against CDDP nephrotoxicity”.

Take `CSc1ncccc1C(=O)O` [2-(methylthio)nicotinic acid]: the CDDP nephroprotection entry with rats was “does not provide nephroprotection in rats”.

With `CSCC[C@H](N)C(N)=O` [L-methioninamide], the “effect on CDDP anti-tumor action” value in [9] is “impairs CDDP anti-tumor action”. Moreover, the CDDP nephroprotection result in the series on rats was “excellent CDDP nephroprotection”.

As for `O=S([O-])([O-])=S.[Na+].[Na+]` [STS, sodium thiosulfate], in series [9], the “effect on CDDP anti-tumor action” value is on record as “may reduce CDDP tumoricidal action; also recorded: reduces the latter's tumoricidal action”. Also, in series [10], the “protection against CDDP-induced weight loss” value was “may exacerbate CDDP-induced weight loss and mortality”. For the same compound, the CDDP nephroprotection result with rats is given as “reduces CDDP nephrotoxicity”. The CDDP otoprotection result in the series with animals (animals) was “good CDDP otoprotection”.

`CC1(C)S[C@@H]2[C@H](NC(=O)Cc3ccccc3)C(=O)N2[C@H]1C(=O)[O-].[Na+]` [sodium salt of penicillin G, penicillin G]: the “protection against CDDP-induced weight loss” value in series [10] is given as “does not protect against CDDP nephrotoxicity or weight loss”. For the same compound, the CDDP nephroprotection result in the series on rats is “does not protect against CDDP nephrotoxicity or weight loss”.

Take `C[C@H](CS)C(=O)N1CCC[C@H]1C(=O)O` [Captropril]: in the series on rats, the CDDP nephroprotection result was “protects against CDDP nephrotoxicity”.

These data come from patent publication US7557142B2, “Therapeutic use of methionine to reduce the toxicity of platinum-containing anti-tumor compounds” (Board of Trustees of Southern Illinois University, priority 1996, dated 2009).
